Results as given in US20240300980A1, “HETEROCYCLIC COMPOUNDS AS KRAS INHIBITOR, AND PREPARATION THEREFOR AND USE THEREOF IN TREATMENT” (SHANGHAI KECHOW PHARMA, INC., priority 2021, published 2024).
Like-named read-outs stand apart in the source and are kept apart here.

Tested on: AGS cells (KRAS^G12D)
Assay: Detection of cell proliferation in vitro by MTT/MTS method (cell activity experiment)
Format: cell-based
Details: AGS cells, MTT/MTS, 3 days of drug treatment, read-out: AGS IC50
In short: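 After 3-day compound exposure (final DMSO 0.5%), viability of AGS (KRAS G12D) cells, plated 1000/well one day before dosing, was measured at 490 nm following 4 h MTT or MTS incubation. IC50 was fitted from dose–effect curves relative to DMSO-treated wells.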

Row | IC50 | Compound | IC50 (Homo sapiens, AGS, 72 h)
1 |  | CCc1cccc2cc(O)cc(-c3ccc4c(N5C[C@H]6CC[C@@H](C5)N6)nc(OC[C@@]56CCCN5C[C@H](F)C6)nc4c3F)c12 [Example 93, 4-(4-((1R,5S)-3,8-diazabicyclo[3.2.1]octan-3-yl)-8-fluoro-2-(((2R,7aS)-2-fluorotetrahydro-1H-pyrrolizin-7a(5H)-yl)methoxy)quinazolin-7-yl)-5-ethylnaphthalen-2-ol] | 0.0101 µM
2 |  | C#Cc1c(F)ccc2cc(O)cc(-c3ncc4c(N(CCNC)C5CC5)nc(OC[C@@]56CCCN5C[C@H](F)C6)nc4c3F)c12 [Example 219, 4-(4-(cyclopropyl(2-(methyl-amino)ethyl)amino)-8-fluoro-2-(((2R,7aS)-2-fluorotetrahydro-1H-pyrrolizin-7a(5H)-yl)methoxy)pyrido[4,3-d]pyrimidin-7-yl)-5-ethynyl-6-fluoronaphthalen-2-ol] | > 2.5 µM
3 |  | CC1CCc2cc(O)cc(-c3ncc4c(N5C[C@H]6CC[C@@H](C5)N6)nc(OC[C@@]56CCCN5C[C@H](F)C6)nc4c3F)c21 (stereo partly drawn) [Example 223, 7-(4-((1R,5S)-3,8-diazabicyclo[3.2.1]octan-3-yl)-8-fluoro-2-(((2R,7aS)-2-fluorotetrahydro-1H-pyrrolizin-7a(5H)-yl)methoxy)pyrido[4,3-d]pyrimidin-7-yl)-1-methyl-2,3-dihydro-1H-inden-5-ol] | 0.014 µM
4 |  | CC1CCc2cc(O)cc(-c3cc4nc(OC[C@@]56CCCN5C[C@H](F)C6)nc(N5C[C@H]6CC[C@@H](C5)N6)c4c4occc34)c21 (stereo partly drawn) [Example 385, 7-(9-((1R,5S)-3,8-diazabicyclo[3.2.1]octan-3-yl)-7-(((2R,7aS)-2-fluorotetrahydro-1H-pyrrolizin-7a(5H)-yl)methoxy)furo[2,3-f]quinazolin-4-yl)-1-methyl-2,3-dihydro-1H-inden-5-ol] | 0.459 µM
5 |  | O=S1(=O)[C@@H]2CC[C@H]1CN(c1nc(OC[C@@]34CCCN3C[C@H](F)C4)nc3c(F)c(-c4cc(O)cc5ccc(F)c(F)c45)ccc13)C2 [Example 166, (1R,5S)-3-(7-(7,8-difluoro-3-hydroxynaphthalen-1-yl)-8-fluoro-2-(((2R,7aS)-2-fluorotetrahydro-1H-pyrrolizin-7a(5H)-yl)methoxy)quinazolin-4-yl)-8-thia-3-azabicyclo[3.2.1]octane 8,8-dioxide] | > 2.5 µM
6 |  | Oc1cc(-c2ccc3c(N4C[C@H]5CC[C@@H](C4)N5)nc(OC[C@@]45CCCN4C[C@H](F)C5)nc3c2F)c2c(F)cccc2c1 [Example 95, 4-(4-((1R,5S)-3,8-diazabicyclo[3.2.1]octan-3-yl)-8-fluoro-2-(((2R,7aS)-2-fluorotetrahydro-1H-pyrrolizin-7a(5H)-yl)methoxy)quinazolin-7-yl)-5-fluoronaphthalen-2-ol] | 0.0135 µM
7 |  | C#Cc1c(F)ccc2cc(O)cc(-c3ncc4c(N5CC6CCC(C5)C6N)nc(OC[C@@]56CCCN5C[C@H](F)C6)nc4c3F)c12 (stereo partly drawn) [Example 63, 4-(4-((1R,5S,8R)-8-amino-3-azabicyclo [3.2.1]octan-3-yl)-8-fluoro-2-(((2R,7aS)-2-fluorotetrahydro-1H-pyrrolizin-7a(5H)-yl)methoxy)pyrido[4,3-d]pyrimidin-7-yl)-5-ethynyl-6-fluoronaphthalen-2-ol] | 1.57 µM
8 |  | [O-][S+]1CCc2cc(O)cc(-c3ncc4c(N5C[C@H]6CC[C@@H](C5)N6)nc(OC[C@@]56CCCN5C[C@H](F)C6)nc4c3F)c21 (stereo partly drawn) [Example 252, 7-(4-((1R,5S)-3,8-diazabicyclo[3.2.1]octan-3-yl)-8-fluoro-2-(((2R,7aS)-2-fluorotetrahydro-1H-pyrrolizin-7a(5H)-yl)methoxy)pyrido[4,3-d]pyrimidin-7-yl)-5-hydroxy-2,3-dihydrobenzo[b]thiophene 1-oxide] | > 2.5 µM
9 |  | CCc1nccc2cc(O)cc(-c3ccc4c(N5C[C@H]6CC[C@@H](C5)N6)nc(OC[C@@]56CCCN5C[C@H](F)C6)nc4c3F)c12 [Example 344, 8-(4-((1R,5S)-3,8-diazabicyclo[3.2.1]octan-3-yl)-8-fluoro-2-(((2R,7aS)-2-fluorotetrahydro-1H-pyrrolizin-7a(5H)-yl)methoxy)quinazolin-7-yl)-1-ethylisoquinolin-6-ol] | 0.035 µM
10 |  | Oc1cc(-c2ccc3c(N4C[C@H]5CC[C@@H](C4)N5)c(C(F)(F)F)c(OC[C@@]45CCCN4C[C@H](F)C5)nc3c2F)c2c(F)c(F)ccc2c1 [Example 187, 4-(4-((1R,5S)-3,8-diazabicyclo[3.2.1]octan-3-yl)-8-fluoro-2-(((2R,7aS)-2-fluorotetrahydro-1H-pyrrolizin-7a(5H)-yl)methoxy)-3-(trifluoromethyl)quinolin-7-yl)-5,6-difluoronaphthalen-2-ol] | 1.41 µM
11 |  | CCc1c(F)ccc2cc(O)cc(C3=C(F)c4nc(OC[C@@]56CCCN5C[C@H](F)C6)nc(N5C[C@H]6CC[C@@H](C5)N6)c4C4=NCCN43)c12 [Example 403, 4-(10-((1R,5S)-3,8-diazabicyclo[3.2.1]octan-3-yl)-6-fluoro-8-(((2R,7aS)-2-fluorotetrahydro-1H-pyrrolizin-7a(5H)-yl)methoxy)-2,3-dihydroimidazo[1′,2′:1,2]pyrido[4,3-d]pyrimidin-5-yl)-5-ethyl-6-fluoronaphthalen-2-ol] | 0.06 µM
12 |  | C#Cc1c(F)ccc2cc(O)cc(-c3cc4nc(OC[C@@]56CCCN5C[C@H](F)C6)c(C(F)(F)F)c(N5C[C@H]6CC[C@@H](C5)N6)c4cn3)c12 [Example 195, 4-(4-((1R,5S)-3,8-diazabicyclo[3.2.1]octan-3-yl)-2-(((2R,7aS)-2-fluorotetrahydro-1H-pyrrolizin-7a(5H)-yl)methoxy)-3-(trifluoromethyl)-1,6-naphthyridin-7-yl)-5-ethynyl-6-fluoronaphthalen-2-ol] | > 2.5 µM
13 |  | CC1CCCc2cc(O)cc(-c3ccc4c(NCC5(N(C)C)CCC5)nc(OC[C@@]56CCCN5C[C@H](F)C6)nc4c3F)c21 (stereo partly drawn) [Example 427, 4-(4-(((1-(dimethylamino)cyclobutyl)methyl)amino)-8-fluoro-2-(((2R,7aS)-2-fluorotetrahydro-1H-pyrrolizin-7a(5H)-yl)methoxy)quinazolin-7-yl)-5-methyl-5,6,7,8-tetrahydronaphthalen-2-ol] | 0.055 µM
14 |  | CC1CCCc2cc(O)cc(-c3c(F)c4nc(OC[C@@]56CCCN5C[C@H](F)C6)nc(N5C[C@H]6CC[C@@H](C5)N6)c4c4nccn34)c21 (stereo partly drawn) [Example 414, 4-(10-((1R,5S)-3,8-diazabicyclo[3.2.1]octan-3-yl)-6-fluoro-8-(((2R,7aS)-2-fluorotetrahydro-1H-pyrrolizin-7a(5H)-yl)methoxy)imidazo[1′,2′:1,2]pyrido[4,3-d]pyrimidin-5-yl)-5-methyl-5,6,7,8-tetrahydronaphthalen-2-ol] | 0.045 µM
15 |  | O=C1CCc2cc(O)cc(-c3ccc4c(N5C[C@H]6CC[C@@H](C5)N6)nc(OC[C@@]56CCCN5C[C@H](F)C6)nc4c3F)c21 [Example 297, 7-(4-((1R,5S)-3,8-diazabicyclo[3.2.1]octan-3-yl)-8-fluoro-2-(((2R,7aS)-2-fluorotetrahydro-1H-pyrrolizin-7a(5H)-yl)methoxy)quinazolin-7-yl)-5-hydroxy-2,3-dihydro-1H-inden-1-one] | > 2.5 µM
16 |  | N#Cc1c(OC[C@@]23CCCN2C[C@H](F)C3)nc2cc(-c3cc(O)cc4cccc(F)c34)ccc2c1N1C[C@H]2CC[C@@H](C1)N2 [Example 176, 4-((1R,5S)-3,8-diazabicyclo[3.2.1]octan-3-yl)-7-(8-fluoro-3-hydroxynaphthalen-1-yl)-2-(((2R,7aS)-2-fluorotetrahydro-1H-pyrrolizin-7a(5H)-yl)methoxy)quinoline-3-carbonitrile] | 1.34 µM
17 |  | C#Cc1c(F)ccc2cc(O)cc(-c3ncc4c(N5C[C@H]6CC[C@@H](C5)N6)nc(OCC56CCCC5N(C)CC6)nc4c3F)c12 (stereo partly drawn) [Example 74, 4-(4-((1R,5S)-3,8-diazabicyclo [3.2.1]octan-3-yl)-8-fluoro-2-((1-methylhexahydrocyclo-penta[b]pyrrol-3a(1H)-yl)methoxy)pyrido[4,3-d]pyrimidin-7-yl)-5-ethynyl-6-fluoronaphthalen-2-ol] | > 2.5 µM
18 | 0.0207 µM | C#Cc1c(F)ccc2cc(O)cc(-c3ccc4c(N5C[C@H]6CC[C@@H](C5)N6)c(F)c(OC[C@@]56CCCN5C[C@H](F)C6)nc4c3F)c12 [Example 335, 4-(4-((1R,5S)-3,8-diazabicyclo[3.2.1]octan-3-yl)-3,8-difluoro-2-(((2R,7aS)-2-fluorotetrahydro-1H-pyrrolizin-7a(5H)-yl)methoxy)quinolin-7-yl)-5-ethynyl-6-fluoronanhthalen-2-ol] | 
19 |  | Oc1cc2c(c(-c3ncc4c(N5C[C@H]6CC[C@@H](C5)N6)nc(OC[C@@]56CCCN5C[C@H](F)C6)nc4c3F)c1)C(F)CCC2 (stereo partly drawn) [Example 272, 4-(4-((1R,5S)-3,8-diazabicyclo[3.2.1]octan-3-yl)-8-fluoro-2-(((2R,7aS)-2-fluorotetrahydro-1H-pyrrolizin-7a(5H)-yl)methoxy)pyrido[4,3-d]pyrimidin-7-yl)-5-fluoro-5,6,7,8-tetrahydronaphthalen-2-ol] | 0.07 µM
20 |  | CCC1CCc2cc(O)cc(-c3c4c(c5c(N6C[C@H]7CC[C@@H](C6)N7)nc(OC[C@@]67CCCN6C[C@H](F)C7)nc5c3F)CCC4)c21 (stereo partly drawn) [Example 381, 7-(1-((1R,5S)-3,8-diazabicyclo[3.2.1]octan-3-yl)-5-fluoro-3-(((2R,7aS)-2-fluorotetrahydro-1H-pyrrolizin-7a(5H)-yl)methoxy)-8,9-dihydro-7H-cyclopenta[f]quinazolin-6-yl)-1-ethyl-2,3-dihydro-1H-inden-5-ol] | 0.075 µM
21 |  | CCc1c(F)ccc2cc(O)cc(-c3ccc4c(N5C[C@H]6CC[C@@H](C5)N6)c(C#N)c(OC[C@@]56CCCN5C[C@H](F)C6)nc4c3F)c12 [Example 178, 4-((1R,5S)-3,8-diazabicyclo[3.2.1]octan-3-yl)-7-(8-ethyl-7-fluoro-3-hydroxynaphthalen-1-yl)-8-fluoro-2-(((2R,7aS)-2-fluorotetrahydro-1H-pyrrolizin-7a(5H)-yl)methoxy)quinoline-3-carbonitrile] | 0.535 µM
